Literature values as cited in patent US11376213B2, “Topical pharmaceutical formulation” (Futura Medical Developments Limited, priority 2016, dated 2022).
Where a name gives a salt, the structure may show the parent alone.

Assays:
[1] = factor by which greater than piroxicam
[2] = not given; remark: listed apart in the source

## O=C(O)Cc1ccccc1Nc1c(Cl)cccc1Cl [diclofenac]
[1]
  efficacy index (ratio of skin penetration to potency) relative to piroxicam: ~10^3

## O=C(O)Cc1ccccc1Nc1c(Cl)cccc1Cl [sodium salt of diclofenac acid, diclofenac sodium]
other
  saturated solubility in propylene glycol: approximately 50 % w/w

## CC(C)Cc1ccc(C(C)C(=O)O)cc1 (centres unmarked) [Ibuprofen, isobutylphenylpropionic acid]
[2]
  aqueous solubility: extremely low

## O=C(O)Cc1ccccc1Nc1c(Cl)cccc1Cl [diclofenac acid]
Polyethylene glycol
  saturated solubility in polyethylene glycol: 11.18 % w/w
other
  saturated solubility in propylene glycol: 1.16 % w/w
